Assay results: the supplement of paper PMC13207355

Assays:
Conditions in all cases: exposure time: 72 h
E57 [1] = patient-derived glioblastoma stem cells of mesenchymal subtype; assay: phenotypic distance (Euclidean, principal components) from DMSO controls (arbitrary units); higher = stronger morphological change
FT3469 [2] = normal neural stem cell line; assay: as above
E13 [3] = patient-derived glioblastoma stem cells of classical subtype; assay: as above
E28 [4] = patient-derived glioblastoma stem cells of classical subtype; assay: as above
E31 [5] = patient-derived glioblastoma stem cells of proneural subtype; assay: as above
E34 [6] = patient-derived glioblastoma stem cells of proneural subtype; assay: as above
E21 [7] = patient-derived glioblastoma stem cells of mesenchymal subtype; assay: as above
E57 [8] = assay: surviving fraction (nuclei count normalised to DMSO); higher = more cells surviving (less toxic)
FT3469 [9] = assay: as above
E13 [10] = assay: as above
E28 [11] = assay: as above
E31 [12] = assay: as above
E34 [13] = assay: as above
E21 [14] = assay: as above
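Throughout, for phenotypic distance (Euclidean, principal components) from DMSO controls: cell Painting imaging in 384-well plates, CellProfiler features reduced to at least 20 principal components, Euclidean distance versus same-plate DMSO vehicle wells (0.1% v/v), median over six images per well.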
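Throughout, for surviving fraction (nuclei count normalised to DMSO): nuclei counted by high-content imaging of Hoechst-stained cells in laminin-coated 384-well plates, relative to 0.1% DMSO vehicle wells, with staurosporine as cell-death control.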

COc1ccc(/C=C\c2cc(OC)c(OC)c(OC)c2)cc1OP(=O)(O)O [Fosbretabulin Disodium]
Conditions	phenotypic distance	surviving fraction
E13 [3], 4.1 nM	1.22	–
E13 [3], 12.3 nM	2.08	–
E13 [3], 37 nM	5.08	–
E13 [3], 111.1 nM	4.95	–
E13 [3], 333.3 nM	5.64	–
E13 [3], 1000 nM	8.31	–
E13 [3], 3000 nM	7.96	–
E13 [10], 4.1 nM	–	0.8
E13 [10], 12.3 nM	–	0.905
E13 [10], 37 nM	–	0.361
E13 [10], 111.1 nM	–	0.241
E13 [10], 333.3 nM	–	0.171
E13 [10], 1000 nM	–	0.175
E13 [10], 3000 nM	–	0.0977
E21 [7], 4.1 nM	0.897	–
E21 [7], 12.3 nM	0.887	–
E21 [7], 37 nM	1.98	–
E21 [7], 111.1 nM	5.67	–
E21 [7], 333.3 nM	6.69	–
E21 [7], 1000 nM	8.1	–
E21 [7], 3000 nM	6.31	–
E21 [14], 4.1 nM	–	0.889
E21 [14], 12.3 nM	–	0.951
E21 [14], 37 nM	–	0.847
E21 [14], 111.1 nM	–	0.415
E21 [14], 333.3 nM	–	0.176
E21 [14], 1000 nM	–	0.101
E21 [14], 3000 nM	–	0.0981
E28 [4], 4.1 nM	0.427	–
E28 [4], 12.3 nM	0.345	–
E28 [4], 37 nM	0.559	–
E28 [4], 111.1 nM	0.674	–
E28 [4], 333.3 nM	1.52	–
E28 [4], 1000 nM	3.18	–
E28 [4], 3000 nM	3.86	–
E28 [11], 4.1 nM	–	1.09
E28 [11], 12.3 nM	–	1
E28 [11], 37 nM	–	0.905
E28 [11], 111.1 nM	–	0.938
E28 [11], 333.3 nM	–	0.894
E28 [11], 1000 nM	–	0.41
E28 [11], 3000 nM	–	0.293
E31 [5], 4.1 nM	0.483	–
E31 [5], 12.3 nM	0.846	–
E31 [5], 37 nM	0.502	–
E31 [5], 111.1 nM	0.681	–
E31 [5], 333.3 nM	1.6	–
E31 [5], 1000 nM	4.42	–
E31 [5], 3000 nM	7.65	–
E31 [12], 4.1 nM	–	0.927
E31 [12], 12.3 nM	–	1.01
E31 [12], 37 nM	–	0.765
E31 [12], 111.1 nM	–	0.917
E31 [12], 333.3 nM	–	0.54
E31 [12], 1000 nM	–	0.123
E31 [12], 3000 nM	–	0.0441
E34 [6], 4.1 nM	0.709	–
E34 [6], 12.3 nM	0.552	–
E34 [6], 37 nM	0.5	–
E34 [6], 111.1 nM	0.935	–
E34 [6], 333.3 nM	1.29	–
E34 [6], 1000 nM	3.14	–
E34 [6], 3000 nM	7.56	–
E34 [13], 4.1 nM	–	0.966
E34 [13], 12.3 nM	–	0.962
E34 [13], 37 nM	–	1.06
E34 [13], 111.1 nM	–	0.942
E34 [13], 333.3 nM	–	0.86
E34 [13], 1000 nM	–	0.521
E34 [13], 3000 nM	–	0.348
E57 [1], 4.1 nM	0.784	–
E57 [1], 12.3 nM	0.887	–
E57 [1], 37 nM	0.575	–
E57 [1], 111.1 nM	1.01	–
E57 [1], 333.3 nM	2.68	–
E57 [1], 1000 nM	5.08	–
E57 [1], 3000 nM	5.09	–
E57 [8], 4.1 nM	–	0.953
E57 [8], 12.3 nM	–	0.934
E57 [8], 37 nM	–	0.943
E57 [8], 111.1 nM	–	0.986
E57 [8], 333.3 nM	–	0.604
E57 [8], 1000 nM	–	0.077
E57 [8], 3000 nM	–	0.0927
FT3469 [2], 4.1 nM	0.525	–
FT3469 [2], 12.3 nM	0.86	–
FT3469 [2], 37 nM	0.542	–
FT3469 [2], 111.1 nM	0.517	–
FT3469 [2], 333.3 nM	1.3	–
FT3469 [2], 1000 nM	2.97	–
FT3469 [2], 3000 nM	3.41	–
FT3469 [9], 4.1 nM	–	0.907
FT3469 [9], 12.3 nM	–	1.03
FT3469 [9], 37 nM	–	1.03
FT3469 [9], 111.1 nM	–	0.976
FT3469 [9], 333.3 nM	–	0.745
FT3469 [9], 1000 nM	–	0.503
FT3469 [9], 3000 nM	–	0.346
